Data: patent US20170311608A1, “BACILLUS THURINGIENSIS SUBSP. AIZAWAI AND CYANTRANILIPROLE MIXTURES FOR DIAMONDBACK MOTH, CABBAGE LOOPER, BEET ARMYWORM, SOYBEAN LOOPER, CORN EARWORM, SOUTHWESTERN CORN BORER AND SUGARCANE BORER CONTROL” (priority 2016, published 2017)
Where two headings read alike, the source gives them in different places.

What was measured:
diamondback moth larvae = test: Leaf dip test, diamondback moth larvae; assay type: in vivo; conditions: Plutella xylostella, foliar, Bta 2.7 ppm, cyantraniliprole 0.1 ppm, mixture 2.7 ppm + 0.1 ppm, read-out: % Efficacy
Source text: The following examples illustrate the effectiveness of Bacillus thuringiensis subsp. aizawai and cyantraniliprole when controlling diamondback moth, cabbage looper, beet armyworm, soybean looper, corn earworm, southwestern corn borer and sugarcane borer. Xentari® was used as the source of Bacillus thuringiensis subsp. aizawai and Exirel® was used as the source of cyantraniliprole. The present invention is not limited to the products or formulation types used herein. In each example below, the studies were conducted as follows.
For these tests, standardized laboratory leaf dip methods were used to inoculate plant material with treatment(s). […] Synergy ratings were calculated for each test. […]
% Cexp=A+B−(AB/100), where % Cexp is the expected efficacy and “in which A and B are the control levels given by the single [insecticides]. […] Adopting a conservative approach, Applicant determined synergy to be present at ratios of >1.15. […]
In order to determine synergy, rates below normal field rate ranges must be used. If normal field rate ranges are used, all of the larvae would die (combining a lethal or near lethal dose of Bacillus thuringiensis subsp. aizawai with a lethal dose of cyantraniliprole would most likely lead to larvae death) in every treatment and synergy would not be able to be determined. […]

corn earworm larvae = test: Leaf dip test, corn earworm larvae; assay type: in vivo; conditions: Helicoverpa zea, foliar, Bta 27 ppm, cyantraniliprole 10.0 ppm, mixture 27 ppm + 10.0 ppm, read-out: % Efficacy
Experimental: (§1) The present invention is not limited to the products or formulation types used herein. In each example below, the studies were conducted as follows.
(§2) For these tests, standardized laboratory leaf dip methods were used to inoculate plant material with treatment(s). Dry, treated leaves were placed into Petri dishes (100×25 mm) containing filter paper wetted with 500 μl of distilled H2O (“dH2O”). Each dish was then infested with between 5 and 10 larvae, dependent on species. Efficacy ratings were taken at specified intervals. Synergy ratings were calculated for each test.
(§3) % Cexp=A+B−(AB/100), where % Cexp is the expected efficacy and “in which A and B are the control levels given by the single [insecticides]. […] Adopting a conservative approach, Applicant determined synergy to be present at ratios of >1.15.

[1] = tested on: southwestern corn borer larvae; test: Leaf dip test, southwestern corn borer larvae; assay type: in vivo, Diatraea grandiosella; conditions: foliar, Bta 2.7 ppm, cyantraniliprole 0.1 ppm, mixture 2.7 ppm + 0.1 ppm, read-out: % Efficacy
Experimental: as §1, §2, §3

soybean looper larvae = test: Leaf dip test, soybean looper larvae; assay type: in vivo, Chrysodeixis includens; conditions: foliar, Bta 27 ppm, cyantraniliprole 1.0 ppm, mixture 27 ppm + 1.0 ppm, read-out: % Efficacy
Experimental: as §1, §2, §3

cabbage looper larvae = test: Leaf dip test, cabbage looper larvae; assay type: in vivo; conditions: Trichoplusia ni, foliar, Bta 2.7 ppm, cyantraniliprole 0.50 ppm, mixture 2.7 ppm + 0.50 ppm, read-out: % Efficacy
Experimental: as §1, §2, §3

beet armyworm larvae = test: Leaf dip test, beet armyworm larvae; assay type: in vivo; conditions: Spodoptera exigua, foliar, Bta 2.7 ppm, cyantraniliprole 1.0 ppm, mixture 2.7 ppm + 1.0 ppm, read-out: % Efficacy
Experimental: as §1, §2, §3

sugarcane borer larvae = test: Leaf dip test, sugarcane borer larvae; assay type: in vivo; conditions: Diatraea saccharalis, foliar, Bta 2.7 ppm, cyantraniliprole 1.0 ppm, mixture 2.7 ppm + 1.0 ppm, read-out: % Efficacy
Experimental: as §1, §2, §3

**Q.** With CNC(=O)c1cc(C#N)cc(C)c1NC(=O)c1cc(Br)nn1-c1ncccc1Cl [Cyantraniliprole, 3-Bromo-1-(3-chloro-2-pyridinyl)-N-[4-cyano-2-methyl-6-(methylcarbamoyl)phenyl]-1H-pyrazole-5-carboxamide] as the molecule, how does the Emax at 0.1 ppm (diamondback moth larvae; 24 h after treatment) read?
**A.** 34%

**Q.** What about the Emax at 0.1 ppm (diamondback moth larvae; 48 h after treatment) of the same molecule?
**A.** 60%

**Q.** And the Emax at 10 ppm (corn earworm larvae; 24 h after treatment)?
**A.** 49%

**Q.** What about the Emax at 10 ppm (corn earworm larvae; 48 h after treatment) of the same molecule?
**A.** 51%

**Q.** And the Emax at 0.1 ppm ([1]; 24 h after treatment)?
**A.** 17%

**Q.** What about the Emax at 0.1 ppm ([1]; 48 h after treatment) of the same molecule?
**A.** 24%

**Q.** And the Emax at 1 ppm (soybean looper larvae; 24 h after treatment)?
**A.** 4%

**Q.** What about the Emax at 1 ppm (soybean looper larvae; 48 h after treatment) of the same molecule?
**A.** 25%

**Q.** What about the Emax at 0.5 ppm (cabbage looper larvae; 24 h after treatment) of the same molecule?
**A.** 18%

**Q.** What about the Emax at 0.5 ppm (cabbage looper larvae; 48 h after treatment) of the same molecule?
**A.** 38%

**Q.** And the Emax at 1 ppm (beet armyworm larvae; 24 h after treatment)?
**A.** 22%

**Q.** What about the Emax at 1 ppm (beet armyworm larvae; 48 h after treatment) of the same molecule?
**A.** 36%

**Q.** And the Emax at 1 ppm (sugarcane borer larvae; 24 h after treatment)?
**A.** 42%

**Q.** And the Emax at 1 ppm (sugarcane borer larvae; 48 h after treatment)?
**A.** 42%
